From publication PMC5848165 (Toxins, 2018) come the findings set out here.

Test [1] deals with TTX-S sodium channels from rat DRG neurons. In words: Whole-cell patch clamp, TTX-S sodium currents in rat DRG neurons. In kind it is cell-based, rat (Sprague-Dawley). The conditions noted are these: 25 °C.
In another test the target is T1, hNav1.7 (Homo sapiens, UniProt Q15858).
T1 construct: expressed in transfected cells; host or cells: HEK293 (HEK293T) cells, transient
Nature of the test: Whole-cell patch clamp, WT Nav1.7 in HEK293 cells. In kind it is cell-based. An excerpt: Nine sodium channel subtypes have been identified and classified as TTX-S (Nav1.1–Nav1.4, Nav1.6, and Nav1.7) or TTX-R types (Nav1.5, Nav1.8, and Nav1.9). […] However, the subtype selectivity of JZTX-34 on the subtype of sodium channel is still unknown. In this work, effects of JZTX-34 on VGSC subtypes (Nav1.1–Nav1.8) were examined. Nav1.1–Nav1.7 were transfected into HEK293 cells and Nav1.8 currents were expressed in ND cells. Inward sodium currents were elicited by a 50 ms depolarizing potential to −10 mV from a holding potential of −80 mV every 5 s. […] No effects on other sodium channel subtypes were found (Nav1.1, Nav1.2, Nav1.4–Nav1.6, and Nav1.8) (Figure S2).
Figure 2 Selectivity of JZTX-34 on sodium channel subtypes. All inward sodium channels were elicited by a 50 ms depolarizing potential to −10 mV from a holding potential of −80 mV every 5 s. One μM JZTX-34 was added to rNav1.3. (A) hNav1.7. (B,C) Dose-dependent inhibition of JZTX-34 on rNav1, rNav3, and hNav1.7 (n = 5). […]
The HEK293T cells were maintained in standard culture conditions (5% CO2 and 37 °C). […] After culturing for 36–72 h, cells with obvious green fluorescence were selected for sodium currents recordings the internal solution for sodium currents recording that contained (in mM) 140 CsF, 5 NaCl, 10 HEPES, 3 Na2-ATP, and 10 EGTA. […]
Sodium currents were recorded from DRG, HEK293, and ND cells by the whole-cell patch-clamp technique at 25 °C. […] Experiments date were acquired from whole-cell Axon 700B patch clamp amplifier (Molecular Devices, Sunnyvale, CA, USA) and analyzed by the program Clampfit10.0 (Molecular Devices, Sunnyvale, CA, USA) and Sigmaplot. […]
Data from Axon 700B patch clamp were analyzed by Clampfit10.0 (Molecular Devices, Sunnyvale, CA, USA). […] The G-V curves were obtained by calculating the conductance (G) at each voltage (V) using the equation G = I/(V1 − Vrev), with Vrev being the reversal potential determined for each cell individually. […] All the results from patch clamp and animal models are expressed as means ± standard error of the mean (SEM). […]
Background: In patch-clamp work, channel activity is measured electrically.

Residues, ends and D or L forms follow the SMILES beside them.

T1 sequence (Q07699 19-218): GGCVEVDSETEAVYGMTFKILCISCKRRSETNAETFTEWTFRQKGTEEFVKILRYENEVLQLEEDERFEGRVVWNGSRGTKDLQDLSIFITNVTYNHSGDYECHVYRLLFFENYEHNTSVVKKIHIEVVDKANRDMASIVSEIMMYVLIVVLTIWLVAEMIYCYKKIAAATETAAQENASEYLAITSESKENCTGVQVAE
T1 sequence (Q15858 other isoform, or with tags, fused parts or gaps): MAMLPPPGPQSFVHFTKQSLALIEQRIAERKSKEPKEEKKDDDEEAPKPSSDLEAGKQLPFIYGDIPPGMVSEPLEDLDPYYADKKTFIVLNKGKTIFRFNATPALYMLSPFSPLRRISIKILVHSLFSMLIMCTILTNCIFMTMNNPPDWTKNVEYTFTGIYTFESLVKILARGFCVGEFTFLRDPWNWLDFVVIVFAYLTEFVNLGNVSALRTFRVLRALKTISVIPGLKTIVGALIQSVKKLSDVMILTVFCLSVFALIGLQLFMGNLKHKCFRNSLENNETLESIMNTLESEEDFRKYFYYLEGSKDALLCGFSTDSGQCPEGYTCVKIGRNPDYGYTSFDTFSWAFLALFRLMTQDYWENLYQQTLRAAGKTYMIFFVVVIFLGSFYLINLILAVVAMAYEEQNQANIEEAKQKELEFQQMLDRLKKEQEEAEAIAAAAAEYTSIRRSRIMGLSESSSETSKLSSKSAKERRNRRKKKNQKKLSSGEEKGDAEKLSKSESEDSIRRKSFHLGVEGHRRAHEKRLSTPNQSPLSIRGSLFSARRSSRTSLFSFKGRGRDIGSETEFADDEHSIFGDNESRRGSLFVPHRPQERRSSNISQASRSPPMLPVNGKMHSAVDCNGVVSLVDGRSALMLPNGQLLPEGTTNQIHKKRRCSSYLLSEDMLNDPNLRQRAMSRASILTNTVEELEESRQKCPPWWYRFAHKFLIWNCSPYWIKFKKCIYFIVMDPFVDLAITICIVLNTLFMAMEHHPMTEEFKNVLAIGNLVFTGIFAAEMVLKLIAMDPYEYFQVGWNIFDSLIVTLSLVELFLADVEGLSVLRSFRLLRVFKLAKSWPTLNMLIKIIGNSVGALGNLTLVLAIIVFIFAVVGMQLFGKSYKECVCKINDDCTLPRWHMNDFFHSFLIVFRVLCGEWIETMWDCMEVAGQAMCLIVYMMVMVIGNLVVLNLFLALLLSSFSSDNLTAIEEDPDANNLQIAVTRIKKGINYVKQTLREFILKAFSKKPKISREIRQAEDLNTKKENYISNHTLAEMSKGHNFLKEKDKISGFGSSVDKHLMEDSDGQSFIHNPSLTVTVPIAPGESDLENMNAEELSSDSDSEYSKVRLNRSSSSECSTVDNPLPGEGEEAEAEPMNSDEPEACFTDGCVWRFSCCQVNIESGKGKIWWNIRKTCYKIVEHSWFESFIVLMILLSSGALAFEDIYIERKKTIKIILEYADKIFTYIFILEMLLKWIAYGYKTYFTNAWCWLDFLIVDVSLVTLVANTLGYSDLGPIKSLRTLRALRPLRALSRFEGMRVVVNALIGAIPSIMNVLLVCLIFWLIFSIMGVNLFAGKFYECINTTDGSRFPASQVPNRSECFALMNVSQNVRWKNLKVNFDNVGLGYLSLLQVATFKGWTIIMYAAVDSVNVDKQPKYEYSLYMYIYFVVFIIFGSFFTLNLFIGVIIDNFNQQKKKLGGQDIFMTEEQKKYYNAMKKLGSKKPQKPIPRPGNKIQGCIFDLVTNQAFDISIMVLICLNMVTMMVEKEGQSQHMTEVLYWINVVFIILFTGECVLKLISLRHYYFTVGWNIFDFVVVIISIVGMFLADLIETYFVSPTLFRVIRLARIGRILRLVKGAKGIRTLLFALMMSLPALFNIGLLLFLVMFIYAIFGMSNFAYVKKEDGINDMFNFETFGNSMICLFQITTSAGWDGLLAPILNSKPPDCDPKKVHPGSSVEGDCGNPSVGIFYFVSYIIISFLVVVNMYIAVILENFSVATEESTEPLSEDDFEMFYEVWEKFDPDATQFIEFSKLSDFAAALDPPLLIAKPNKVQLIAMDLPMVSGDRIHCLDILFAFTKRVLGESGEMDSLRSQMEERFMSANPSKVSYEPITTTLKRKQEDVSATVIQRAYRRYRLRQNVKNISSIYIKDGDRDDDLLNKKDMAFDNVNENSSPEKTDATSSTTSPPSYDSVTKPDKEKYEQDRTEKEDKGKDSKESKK

Turning to `CC(C)C[C@@H]1NC(=O)[C@H](Cc2c[nH]c3ccccc23)NC(=O)[C@H](CCC(=O)O)NC(=O)[C@H](CCCNC(=N)N)NC(=O)[C@@H](NC(=O)[C@H](C)N)CSSC[C@@H]2NC(=O)[C@@H]3CSSC[C@@H](C(=O)N[C@H](C(=O)N[C@@H](Cc4c[nH]c5ccccc45)C(=O)N[C@@H](CC(=O)O)C(=O)N[C@@H](Cc4c[nH]c5ccccc45)C(=O)N[C@H](C(=O)N[C@H](C(=O)O)C(C)C)[C@@H](C)O)C(C)C)NC(=O)[C@H](Cc4c[nH]cn4)NC(=O)[C@H](Cc4ccc(O)cc4)NC(=O)[C@@H]4CCCN4C(=O)[C@H](Cc4c[nH]c5ccccc45)NC(=O)[C@H](CCCCN)NC(=O)[C@H](CCCCN)NC(=O)[C@H](CCCNC(=N)N)NC(=O)[C@H](CSSC[C@H](NC(=O)CNC(=O)CNC1=O)C(=O)N[C@@H](CO)C(=O)N[C@@H](CCCCN)C(=O)N[C@@H](CC(=O)O)C(=O)N[C@@H](C)C(=O)N[C@@H](CC(=O)O)C(=O)N3)NC(=O)[C@H](CCC(=O)O)NC(=O)[C@H](CC(C)C)NC(=O)[C@H](Cc1c[nH]cn1)NC(=O)[C@H](C)NC2=O` [JZTX-34, Jingzhaotoxin-34] (HELM PEPTIDE1{A.C.R.E.W.L.G.G.C.S.K.D.A.D.C.C.A.H.L.E.C.R.K.K.W.P.Y.H.C.V.W.D.W.T.V}$PEPTIDE1,PEPTIDE1,2:R3-16:R3|PEPTIDE1,PEPTIDE1,9:R3-21:R3|PEPTIDE1,PEPTIDE1,15:R3-29:R3$$$V2.0; N-terminus and C-terminus assumed), the “inhibition of TTX-S sodium currents” value in test [1] (1 µM synthetic JZTX-34, 50 ms depolarization to −10 mV from −80 mV) is on record as ~ 81%. The concentration for half-maximal inhibition (IC50) (usually the concentration that gives 50% inhibition) was 91 nM in test [1] (synthetic toxin, Hill fit, n = 5, −10 mV from −80 mV holding) and 610 nM at hNav1.7 (−10 mV from −80 mV holding, Hill fit, n = 5). Further, the inhibition (as a rule, the relative decrease from the control value, in per cent) at 1 µM at hNav1.7 (1 µM, mutant comparison experiment (Figure 4), read-out: inhibition of WT Nav1.7 currents) was found to be 54.3 ± 5.2%. The “reduction of Nav1.7 currents” value on hNav1.7 (1 µM, −10 mV from −80 mV holding, mean ± S.E., subtype selectivity experiment (Figure 2)) is listed as 54.6 ± 5.3%.
